From ChEMBL document CHEMBL1681692, “Identification of new GATA4-small molecule inhibitors by structure-based virtual screening” (Bioorg Med Chem, 2011)
Calls of active or inactive are those of the source. The calls are words filed in the database; no cut-off is given here.

What was measured:
[1] = molecular target: Transcription factor GATA-4 (Homo sapiens) (UniProt P43694); assay: Inhibition of GATA4-DNA interaction in HEK293 nuclear extract at 50 uM after 15 mins by EMSA assay; assay type: cell-free
[2] = molecular target: Transcription factor GATA-4 (Homo sapiens) (UniProt P43694); assay: Inhibition of GATA4-DNA interaction in HEK293 nuclear extract at 100 uM after 15 mins by EMSA assay; assay type: cell-free
[3] = molecular target: Transcription factor GATA-4 (Homo sapiens) (UniProt P43694); assay: Inhibition of GATA4-DNA interaction in HEK293 nuclear extract at 150 uM after 15 mins by EMSA assay; assay type: cell-free
[4] = molecular target: Transcription factor GATA-4 (Homo sapiens) (UniProt P43694); assay: Inhibition of GATA4- mediated BNP promoter activation in HeLa cells at 100 uM after 24 hrs by luciferase reporter gene assay; assay type: cell-based
[5] = molecular target: Transcription factor GATA-4 (Mus musculus) (UniProt Q08369); assay: Inhibition of GATA4- DNA interaction in mouse C2C12 cells at 100 uM after 24 hrs by EMSA assay; assay type: cell-based
[6] = molecular target: Transcription factor GATA-4 (Mus musculus) (UniProt Q08369); assay: Inhibition of GATA4 in mouse C2C12 cells assessed as myoblast differentiation to myotubes at 100 uM after 48 hrs by immunofluorescence assay in presence of 0.5% FBS relative to control; assay type: cell-based
[7] = molecular target: Transcription factor GATA-4 (Mus musculus) (UniProt Q08369); assay: Inhibition of GATA4 in mouse C2C12 cells assessed as myoblast differentiation to myotubes at 100 uM after 48 hrs by immunofluorescence assay in presence of 20 % FBS relative to control; assay type: cell-based
[8] = Lipophilicity, log P of compound; assay type: physicochemical; settings: octanol/water
HeLa [9] = assay: Drug uptake in human HeLa cells after 24 hrs; assay type: ADME, cell-based
[10] = molecular target: Transcription factor GATA-4 (Homo sapiens) (UniProt P43694); assay: Inhibition of GATA4-DNA interaction in HEK293 nuclear extract at 50 to 150 uM after 15 mins by EMSA assay
HeLa [11] = assay: Cytotoxicity in human HeLa cells assessed as effect on cell proliferation upto 150 uM; assay type: cell-based
HEK293 [12] = assay: Cytotoxicity in human HEK293 cells assessed as effect on cell proliferation upto 150 uM; assay type: cell-based
C2C12 [13] = assay: Cytotoxicity in mouse C2C12 cells assessed as effect on cell proliferation upto 150 uM; assay type: cell-based
HeLa [14] = assay: Cytotoxicity in human HeLa cells assessed as cell death upto 150 uM; assay type: cell-based
C2C12 [15] = assay: Cytotoxicity in mouse C2C12 cells assessed as cell death upto 150 uM; assay type: cell-based
HEK293 [16] = assay: Cytotoxicity in human HEK293 cells assessed as cell death upto 150 uM; assay type: cell-based
[17] = molecular target: T1, T-box transcription factor TBX5 (Homo sapiens) (UniProt Q99593); assay: Effect on Tbx5 in HEK293 nuclear extract at 50 uM after 15 mins by EMSA assay
T1 sequence (whole entry): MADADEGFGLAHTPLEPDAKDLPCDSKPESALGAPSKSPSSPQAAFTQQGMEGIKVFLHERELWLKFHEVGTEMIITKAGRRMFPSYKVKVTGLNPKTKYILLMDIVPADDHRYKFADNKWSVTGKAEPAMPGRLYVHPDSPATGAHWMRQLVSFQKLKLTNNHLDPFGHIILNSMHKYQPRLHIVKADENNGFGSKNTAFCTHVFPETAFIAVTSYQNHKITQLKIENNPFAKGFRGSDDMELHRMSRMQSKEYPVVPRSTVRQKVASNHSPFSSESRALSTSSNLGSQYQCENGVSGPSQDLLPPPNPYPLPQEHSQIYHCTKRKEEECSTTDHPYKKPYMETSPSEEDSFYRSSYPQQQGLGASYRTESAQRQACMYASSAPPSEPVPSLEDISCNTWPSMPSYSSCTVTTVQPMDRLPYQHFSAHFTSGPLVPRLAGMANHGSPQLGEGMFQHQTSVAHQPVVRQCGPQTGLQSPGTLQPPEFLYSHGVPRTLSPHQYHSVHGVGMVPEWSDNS

[18] = molecular target: T2, Nuclear factor of activated T-cells, cytoplasmic 1 (Homo sapiens) (UniProt O95644); assay: Effect on NFATc1 in HEK293 nuclear extract at 50 uM after 15 mins by EMSA assay
T2 sequence (whole entry): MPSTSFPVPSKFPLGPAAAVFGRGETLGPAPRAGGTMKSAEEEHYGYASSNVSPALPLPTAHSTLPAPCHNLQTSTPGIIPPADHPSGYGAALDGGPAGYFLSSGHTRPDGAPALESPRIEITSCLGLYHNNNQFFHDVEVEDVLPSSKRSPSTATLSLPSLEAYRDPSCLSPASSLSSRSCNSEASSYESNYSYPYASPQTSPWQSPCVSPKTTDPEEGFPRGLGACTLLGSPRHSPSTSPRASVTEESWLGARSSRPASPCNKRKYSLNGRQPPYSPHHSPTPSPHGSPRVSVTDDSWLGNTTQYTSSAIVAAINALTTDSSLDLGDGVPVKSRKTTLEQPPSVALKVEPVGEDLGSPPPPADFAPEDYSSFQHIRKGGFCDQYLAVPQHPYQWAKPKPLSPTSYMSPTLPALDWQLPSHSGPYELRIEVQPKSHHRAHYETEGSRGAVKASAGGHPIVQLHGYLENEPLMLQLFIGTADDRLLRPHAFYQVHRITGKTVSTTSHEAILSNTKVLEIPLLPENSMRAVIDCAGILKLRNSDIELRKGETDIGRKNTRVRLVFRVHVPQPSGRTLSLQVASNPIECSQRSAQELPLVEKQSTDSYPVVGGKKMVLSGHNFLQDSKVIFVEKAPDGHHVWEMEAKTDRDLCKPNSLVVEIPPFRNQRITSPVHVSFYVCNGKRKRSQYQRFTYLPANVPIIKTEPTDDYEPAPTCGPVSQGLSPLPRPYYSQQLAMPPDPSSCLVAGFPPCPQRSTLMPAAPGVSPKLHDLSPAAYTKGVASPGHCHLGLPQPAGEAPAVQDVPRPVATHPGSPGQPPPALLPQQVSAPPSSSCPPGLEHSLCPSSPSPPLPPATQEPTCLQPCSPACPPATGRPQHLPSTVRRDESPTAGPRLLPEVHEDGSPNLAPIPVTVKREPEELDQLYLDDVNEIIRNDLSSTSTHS

Transcription factor GATA-4 (Homo sapiens), sequence (P43694 whole entry): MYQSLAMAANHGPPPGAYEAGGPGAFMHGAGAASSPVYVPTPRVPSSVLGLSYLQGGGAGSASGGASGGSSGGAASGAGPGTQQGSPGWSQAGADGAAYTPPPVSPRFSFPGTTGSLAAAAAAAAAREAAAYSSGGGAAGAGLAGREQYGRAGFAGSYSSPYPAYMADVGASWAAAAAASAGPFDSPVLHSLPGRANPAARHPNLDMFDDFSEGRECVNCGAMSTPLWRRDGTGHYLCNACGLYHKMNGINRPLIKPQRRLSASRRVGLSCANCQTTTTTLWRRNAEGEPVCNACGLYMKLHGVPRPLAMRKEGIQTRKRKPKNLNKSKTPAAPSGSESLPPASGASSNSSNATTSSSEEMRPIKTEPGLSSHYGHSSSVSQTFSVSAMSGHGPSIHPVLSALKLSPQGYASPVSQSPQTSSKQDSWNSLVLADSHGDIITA
Transcription factor GATA-4 (Mus musculus), sequence (Q08369 whole entry): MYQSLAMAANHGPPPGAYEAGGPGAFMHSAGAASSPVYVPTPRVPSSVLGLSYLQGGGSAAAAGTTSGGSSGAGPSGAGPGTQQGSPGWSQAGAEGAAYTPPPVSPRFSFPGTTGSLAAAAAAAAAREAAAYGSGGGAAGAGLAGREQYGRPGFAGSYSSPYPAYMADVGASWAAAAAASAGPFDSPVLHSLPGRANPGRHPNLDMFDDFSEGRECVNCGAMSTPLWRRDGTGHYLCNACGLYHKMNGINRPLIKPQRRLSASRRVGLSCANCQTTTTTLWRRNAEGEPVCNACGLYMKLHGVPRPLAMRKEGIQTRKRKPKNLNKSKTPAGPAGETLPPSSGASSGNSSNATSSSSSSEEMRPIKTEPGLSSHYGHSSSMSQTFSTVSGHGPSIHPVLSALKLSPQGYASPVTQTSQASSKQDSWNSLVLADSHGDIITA

## O=C(O)c1cc(C(=O)O)cc(S(=O)(=O)NCCO)c1
[1]
  inhibition: Active
[2]
  inhibition: Active
[3]
  inhibition: 70%
[4]
  inhibition: inactive
[5]
  inhibition: Active
[6]
  inhibition: Active
[7]
  inhibition: Active
[8]
  logP: < 0
HeLa [9]
  Drug uptake: Not Active
[10]
  inhibition: Dose-dependent effect
HeLa [11]
  Activity: Non-toxic
HEK293 [12]
  Activity: Non-toxic
C2C12 [13]
  Activity: Non-toxic
HeLa [14]
  Activity: Non-toxic
C2C12 [15]
  Activity: Non-toxic
HEK293 [16]
  Activity: Non-toxic
[17]
  Activity: inactive
[18]
  Activity: inactive

## NC(=O)c1ncn([C@@H]2O[C@H](COP(=O)(O)O)[C@@H](O)[C@H]2O)n1 [RIBAVIRIN MONOPHOSPHATE]
[1]
  inhibition: Active
[2]
  inhibition: Active
[3]
  inhibition: 70%
[4]
  inhibition: 16%
[5]
  inhibition: Active
[6]
  inhibition: inactive
[7]
  inhibition: inactive
[8]
  logP: < 0
HeLa [9]
  Drug uptake: Active
[10]
  inhibition: Dose-dependent effect
HeLa [11]
  Activity: Non-toxic
HEK293 [12]
  Activity: Non-toxic
C2C12 [13]
  Activity: Non-toxic
HeLa [14]
  Activity: Non-toxic
C2C12 [15]
  Activity: Non-toxic
HEK293 [16]
  Activity: Non-toxic
[17]
  Activity: inactive
[18]
  Activity: inactive

## Cc1cc(C(=O)O)c(C(=O)O)c(O)n1
[1]
  inhibition: Active
[2]
  inhibition: Active
[3]
  inhibition: 70%
[4]
  inhibition: 35%
[5]
  inhibition: Active
[6]
  inhibition: inactive
[7]
  inhibition: inactive
[8]
  logP: < 0
HeLa [9]
  Drug uptake: Active
[10]
  inhibition: Dose-dependent effect
HeLa [11]
  Activity: Non-toxic
HEK293 [12]
  Activity: Non-toxic
C2C12 [13]
  Activity: Non-toxic
HeLa [14]
  Activity: Non-toxic
C2C12 [15]
  Activity: Non-toxic
HEK293 [16]
  Activity: Non-toxic
[17]
  Activity: inactive
[18]
  Activity: inactive

## O=C(O)CC(Cc1ccc2c(c1)OCO2)C(=O)O (stereo unspecified)
[1]
  inhibition: 60%
[2]
  inhibition: Active
[4]
  inhibition: 35%
[5]
  inhibition: Active
[6]
  inhibition: Active
[7]
  inhibition: Active
[8]
  logP: < 0
HeLa [9]
  Drug uptake: Active
[10]
  inhibition: Dose-dependent effect
HeLa [11]
  Activity: Non-toxic
HEK293 [12]
  Activity: Non-toxic
C2C12 [13]
  Activity: Non-toxic
HeLa [14]
  Activity: Non-toxic
C2C12 [15]
  Activity: Non-toxic
HEK293 [16]
  Activity: Non-toxic
[17]
  Activity: inactive
[18]
  Activity: inactive
